Reference: PMC9053583, “A novel series of phenolic temozolomide (TMZ) esters with 4 to 5-fold increased potency, compared to TMZ, against glioma cells irrespective of MGMT expression” (RSC Advances, 2020)

Experiments:
[1] = Solubility in cell culture medium; assay type: physicochemical
Description: The maximum concentration that could be achieved in medium for amide analogues 4a and 4c was approximately 200 μM, at which IC50 values could not be generated and were also eliminated from further studies.
(§1) Cells were seeded in the appropriate media in each well of a Costar 96-well plate at a density of 5 × 10^2 immortalised cells; 2 × 10^3 (primary cells). The plates were incubated at 37 °C and 5% CO2 in a humidified incubator for 24 hours to allow cells to adhere. Each of the drugs tested were dissolved in DMSO to afford a 200 mM stock solution. The stock solutions were diluted with medium to afford the final working concentrations, ensuring DMSO concentration was no greater than 0.5% (v/v). Drug concentrations were added to the cells and incubated for 144 hours. After incubation, the drug concentrations were removed and replaced with 100 μL of CellTiter-Glo® and 100 μL of media. The luminescence of each well was measured on GENios Pro plate reader. The results for each of the drug concentrations were expressed as a percentage of the control wells. For cell lines, the regression equation for a polynomial line of best fit of order 2 was used to calculate the IC50. In the case of the in vitro model used in the present study, the IC50 was defined as the concentration of drug that results in a 50% reduction in oxyluciferin production. Primary culture cells were incubated with clinically relevant concentrations for 144 hours. Viability was expressed as a percentage of the control wells. Each experiment involving cell lines was carried out in triplicate of triplicates. Experiments using patient derived primary cultures were carried out in triplicate.

U87-MG cells = experiment: CellTiter-Glo cytotoxicity against U87-MG cells; assay type: cell-based; details: Homo sapiens, U-87 MG; initial screening, 144 hours incubation, CellTiter-Glo, IC50 ± SD (n = 3); read-out: IC50 against U87-MG cells
Description: Apoptosis of glioma cells induced by TMZ, occurs at least 120 hours after treatment.[7] Consequently, cells were incubated for 144 hours with specified TMZ analogues in the in vitro investigations in order to obtain more reliable IC50 values.
1321-N1 (human astrocytoma) was maintained in DMEM medium supplemented with 2 mM L-glutamine and 10% FBS. GOS-3, (human brain mixed astro-oligodendroglioma) was maintained in DMEM medium supplemented with 2 mM L-glutamine and 10% […]. U87-MG, (human glioblastoma) and SVGp12 (normal human astroglia) were maintained in EMEM medium supplemented with 2 mM L-glutamine, 1 mM sodium pyruvate and 10% FBS. All cell lines were incubated at 37 °C and 5% CO2 in a humidified incubator. Primary BTNW cultures were maintained in Ham's F10 nutrient mixture, containing 20 mM HEPES, 2 mM glutamine and 10% FBS. Primary cultures were incubated in a humidified incubator at 37 °C.
as §1
Initial screening of the 25 analogues was completed using the U87-MG cell line. The most promising analogues from the initial screening were taken forward and tested against the 1321-N1, GOS-3 and SVG-p12 cell lines. The results of all 4 cell lines were compiled and the analogues that were deemed to be the most promising drug candidates were tested against primary cultures at clinically relevant concentrations.

Row | SMILES | solubility in cell culture medium [1] | melting point [°C] | IC50 (U87-MG cells) [µM]
1 | COc1ccc(CNC(=O)c2ncn3c(=O)n(C)nnc23)cc1 [Analogue 4i, N-(4-Methoxybenzyl)-3-methyl-4-oxo-3,4-dihydroimidazo[5,1-d][1,2,3,5]tetrazine-8-carboxamide] | insoluble | 193 | 
2 | Cn1nnc2c(C(=O)OCCc3ccccc3)ncn2c1=O [Analogue 3c, Phenethyl 3-methyl-4-oxo-3,4-dihydroimidazo[5,1-d][1,2,3,5]tetrazine-8-carboxylate] |  | 124 | 615 ± 96
3 | Cn1nnc2c(C(=O)OCCc3ccc([N+](=O)[O-])cc3)ncn2c1=O [Analogue 3d, 4-Nitrophenethyl 3-methyl-4-oxo-3,4-dihydroimidazo[5,1-d][1,2,3,5]tetrazine-8-carboxylate] | insoluble | 187 | 
4 | Cc1ccc(CNC(=O)c2ncn3c(=O)n(C)nnc23)cc1 [Analogue 4j, 3-Methyl-N-(4-methylbenzyl)-4-oxo-3,4-dihydroimidazo[5,1-d][1,2,3,5]tetrazine-8-carboxamide] |  | 152 | 139 ± 28
5 | Cc1ccc(NC(=O)c2ncn3c(=O)n(C)nnc23)cc1 [Analogue 4g, 3-Methyl-4-oxo-N-(p-tolyl)-3,4-dihydroimidazo[5,1-d][1,2,3,5]tetrazine-8-carboxamide] | insoluble | 209 | 
6 | Cn1nnc2c(C(=O)Nc3ccc(C#N)cc3)ncn2c1=O [Analogue 4f, N-(4-Cyanophenyl)-3-methyl-4-oxo-3,4-dihydroimidazo[5,1-d][1,2,3,5]tetrazine-8-carboxamide] | insoluble | 234 | 
7 | COc1ccc(COC(=O)c2ncn3c(=O)n(C)nnc23)cc1 [Analogue 3f, 4-Methoxybenzyl 3-methyl-4-oxo-3,4-dihydroimidazo[5,1-d][1,2,3,5]tetrazine-8-carboxylate] | insoluble | 170 | 
8 | CCOC(=O)c1ncn2c(=O)n(C)nnc12 [Analogue 3a, Ethyl 3-methyl-4-oxo-3,4-dihydroimidazo[5,1-d][1,2,3,5]tetrazine-8-carboxylate] |  | 130 | 700 ± 109
9 | Cn1nnc2c(C(=O)NCCc3ccccc3)ncn2c1=O [Analogue 4b, 3-Methyl-4-oxo-N-phenethyl-3,4-dihydroimidazo[5,1-d] [1,2,3,5]tetrazine-8-carboxamide] |  | 158 | 548 ± 48
10 | CN(C)CCCOC(=O)c1ncn2c(=O)n(C)nnc12 [Analogue 3g, 3-(Dimethylamino)propyl 3-methyl-4-oxo-3,4-dihydroimidazo[5,1-d][1,2,3,5]tetrazine-8-carboxylate] |  | 204 | 856 ± 20
11 | COc1ccc(NC(=O)c2ncn3c(=O)n(C)nnc23)cc1 [Analogue 4d, N-(4-Methoxyphenyl)-3-methyl-4-oxo-3,4-dihydroimidazo[5,1-d][1,2,3,5]tetrazine-8-carboxamide] | insoluble | 192 | 
12 | COc1ccc(CCOC(=O)c2ncn3c(=O)n(C)nnc23)cc1 [Analogue 3e, 4-Methoxyphenethyl 3-methyl-4-oxo-3,4-dihydroimidazo[5,1-d][1,2,3,5]tetrazine-8-carboxylate] | insoluble | 164 | 
13 | Cn1nnc2c(C(=O)Nc3ccc(Cl)cc3)ncn2c1=O [Analogue 4e, N-(4-Chlorophenyl)-3-methyl-4-oxo-3,4-dihydroimidazo[5,1-d][1,2,3,5]tetrazine-8-carboxamide] | insoluble | 200 | 
14 | COc1ccccc1OC(=O)c1ncn2c(=O)n(C)nnc12 [Analogue 3m, 2-Methoxyphenyl 3-methyl-4-oxo-3,4-dihydroimidazo[5,1-d][1,2,3,5]tetrazine-8-carboxylate] |  | 165 | 576 ± 91
